{"source": "patent US20240417404A1", "about": "“CRYSTALLINE FORMS OF N-[4-[4-(4-MORPHOLINYL)-7H-PYRROLO[2,3-d]PYRIMIDIN-6-YL]PHENYL]-4-[[3(R)-[(1-OXO-2-PROPEN-1-YL)AMINO]-1-[sequence]]METHYL]-2-PYRIDINECARBOXAMIDE AS IRREVERSIBLE INHIBITORS OF MENIN-MLL INTERACTION” (BIOMEA FUSION, INC., priority 2023, published 2024)", "key": {"[1]": {"system": "patient-derived THL and MYC-amplified DLBCL PDX samples", "assay": "Ex vivo DLBCL patient-derived PDX samples (Cell Titer Glo, six days)", "type": "cell-based, human", "conditions": "THL/R-CHOP-refractory and MYC amplification/R-EPOCH refractory clinical profiles", "description": "(§1) Compound A was tested against a THL cell line (VAL), and a DEL cell line (U2932). An expanded panel of DHL cell lines were tested for sensitivity to Compound A. Ex vivo patient samples of THL and MYC-amplified DLBCL were tested with Compound A. Sensitivity of THL and MYC-driven DLBCL in both in vitro and ex vivo models were compared with clinical reversible menin inhibitors. Compound A was tested against a panel of MM cell lines and ex vivo MM patient samples of p53del, 13qdel, and relapsed/refractory cases.\n(§2) DLBCL cell line TOLEDO was cultured in the presence of Compound A or clinical reversible menin inhibitors for six and fourteen hours. Menin protein expression was reduced up to 60% at 1 μM by Compound A after fourteen hours compared to clinical reversible inhibitors at <20% at similar concentrations. Menin protein expression was measured by the Wes system and analyzed using the Compass software (automated western blotting, Protein Simple). Signal was normalized to GAPDH and referenced to DMSO control (FIG. 36E). DLBCL and MM cell lines were cultured with Compound A, bortezomib (PS-341), or DMSO for four days and cell proliferation was measured by Cell Titer Glo. Ex vivo studies of DLBCL and MM models were conducted by measurement of cell proliferation (Cell Titer Glo) after six days of treatment with Compound A, PS-341, or DMSO control."}, "[2]": {"system": "SUDHL8", "assay": "DLBCL cell line proliferation (Cell Titer Glo, four days): SUDHL8", "type": "cell-based", "conditions": "SUDHL8, GCB", "description": "as §2"}, "[3]": {"system": "DHL, THL, and DEL DLBCL cell lines", "assay": "DLBCL cell line panel proliferation (Cell Titer Glo, four days)", "type": "cell-based", "description": "as §1, §2"}, "[4]": {"system": "KRAS and MEN1 expression in MiaPaCa-2 cells", "assay": "RNA-seq gene expression in MiaPaCa-2 cells", "type": "cell-based, human", "conditions": "0.5 μM and 1 μM, twenty-four hours", "description": "MOLM-13 and MiaPaCa-2 cells were incubated with Compound A for twenty-four hours and were analyzed by RNA-seq on an Illumina NextSeq 550 platform. […] Cell viability was measured using CellTiter Glo. Human ex vivo PDX tissue models harboring KRAS mutations were cultured with Compound A and clinical reversible menin inhibitors for six days. Cell viability was measured using CellTiter Glo."}, "[5]": {"system": "human pancreatic islet beta cells", "assay": "Beta cell proliferation in human islet microtissues", "type": "cell-based", "description": "Human islet microtissues were aggregated for 5 days and then released into ultra-low attachment plates. Half of the plates were maintained in standard culture medium (5.5 mM glucose), and half were cultured in high-glucose culture medium (GTX, 8 mM glucose) starting at Day 6, for the duration of the whole experiment. Starting on Day 9 (after 3 days of GTX pre-treatment for the relevant plates), dosing with compounds was initiated, using a Tecan D300e Digital Dispenser. DMSO was normalized by volume across all wells. Media were exchanged and compounds were redosed every 2-3 days throughout the experiment. Compound dosing was randomized; to avoid compound cross-contamination between wells, all medium exchanges were performed using 96-well deep well plates with pipette tip exchange.\nFIG. 32 provides human pancreatic islet beta cell proliferation on Day 14 and Day 21. In FIG. 32, A is ATP content; B is proliferating beta cell fraction; and C is beta cell fraction. Upper graphs are standard media, and lower graphs are high glucose media. […]\nIndividual islet microtissues can be cultured in 96-well culture plates and maintained in the presence of Compound 10, a representative irreversible menin-MLL inhibitor, at the appropriate concentration. […] Following 2 or more weeks of culturing, proliferation of beta cells is monitored via immunofluorescence staining for appropriate markers. […]"}, "[6]": {"system": "DB", "assay": "DLBCL cell line proliferation (Cell Titer Glo, four days): DB", "type": "cell-based", "conditions": "DHL", "description": "as §2"}}, "note": "“Also recorded” adds a separate entry of the source.", "data": [{"smiles": "C=CC(=O)N[C@@H]1CCCN(Cc2ccnc(C(=O)Nc3ccc(-c4cc5c(N6CCOCC6)ncnc5[nH]4)cc3)c2)C1", "note": "[Compound A, N-[4-[4-(4-morpholinyl)-7H-pyrrolo[2,3-d]pyrimidin-6-yl]phenyl]-4-[[3(R)-[(1-oxo-2-propen-1-yl)amino]-1-piperidinyl]methyl]-2-pyridinecarboxamide]", "values": [{"measurement": "growth inhibition of ex vivo DLBCL patient samples", "setting": "[1]", "result": "complete growth inhibition; also recorded: highly effective"}, {"measurement": "Average % Max Inhibition by Compound A", "setting": "[2]", "result": 99.6, "unit": "%"}, {"measurement": "cell lethality", "setting": "[3]; DHL, THL, and DEL DLBCL cell lines", "result": "> 90", "unit": "%"}, {"measurement": "growth inhibition of THL and DEL cell line models", "setting": "[3]; VAL, U2932", "result": "complete growth inhibition"}, {"measurement": "KRAS and MEN1 expression levels", "setting": "[4]", "result": "marked reduction; also recorded: dramatically decreased"}, {"measurement": "human pancreatic islet beta cell proliferation (proliferating beta cell fraction)", "setting": "[5]; Day 14 and Day 21, compared to control", "result": "induced human pancreatic islet beta cells substantially compared to control"}, {"measurement": "beta-cell proliferation", "setting": "[5]; glucose stress (8 mM glucose) vs standard glucose (5.5 mM)", "result": "dose dependent increase in beta-cell proliferation under glucose stress condition, but not under standard glucose conditions"}, {"measurement": "Average % Max Inhibition by Compound A", "setting": "[6]; MYC/BCL2", "result": 98.5, "unit": "%"}, {"measurement": "IC50", "setting": "[6]; Homo sapiens, MYC/BCL2, read-out: Average IC50 ± Standard Deviation", "result": "407 ± 67", "unit": "nM"}]}]}
